The test system of the first experiment is ECa-109 cell line. Kind of experiment: Antiproliferative activity against human Eca-109 cells measured after 72 hrs by MTT assay. In kind it is functional, cell-based. To be noted: ECa-109, 72 h. A general note: Formazan colour is commonly taken as a measure of viable cells.
`C[C@H]1CCC/C=C/[C@@H]2C[C@H](OC(=O)/C=C/c3ccc(F)cc3)C[C@H]2[C@H](O)/C=C/C(=O)O1` yielded a concentration for half-maximal inhibition (IC50) of 2860 nM.

`C[C@H]1CCC/C=C/[C@@H]2C[C@H](O)C[C@H]2[C@H](OC(=O)/C=C/c2ccc(F)cc2)/C=C/C(=O)O1` registered an IC50 of 1140 nM.

`C[C@H]1CCC/C=C/[C@@H]2C[C@H](O)C[C@H]2[C@H](OC(=O)/C=C/c2ccccc2)/C=C/C(=O)O1`: the IC50 came out at 1120 nM.

Regarding `C[C@H]1CCC/C=C/[C@@H]2C[C@H](O)C[C@H]2[C@H](OC(=O)/C=C/c2ccc3c(c2)OCO3)/C=C/C(=O)O1`, half-maximal inhibition (IC50) required 2200 nM.

`C[C@H]1CCC/C=C/[C@@H]2C[C@H](O)C[C@H]2[C@H](OC(=O)/C=C/c2cccc(Cl)c2)/C=C/C(=O)O1` gave a half-maximal inhibitory concentration (IC50) of 740 nM.

Regarding `C[C@H]1CCC/C=C/[C@@H]2C[C@H](OC(=O)/C=C/c3ccc(C(F)(F)F)cc3)C[C@H]2[C@H](O)/C=C/C(=O)O1`, the IC50 came to 550 nM.

The compound `Cc1ccccc1/C=C/C(=O)O[C@@H]1C[C@H]2[C@H](O)/C=C/C(=O)O[C@@H](C)CCC/C=C/[C@@H]2C1` showed a 50% inhibitory concentration (IC50) above 4000 nM.

Compound `C[C@H]1CCC/C=C/[C@@H]2C[C@H](OC(=O)/C=C/c3ccccc3Br)C[C@H]2[C@H](O)/C=C/C(=O)O1` yielded an IC50 of 500 nM.

The subject of another experiment is Bel-7402. Kind of experiment: Antiproliferative activity against human Bel-7402 cells measured after 72 hrs by MTT assay. Conditions: Bel-7402, 72 h. It is filed as functional, cell-based.
`C[C@H]1CCC/C=C/[C@@H]2C[C@H](OC(=O)/C=C/c3ccc(F)cc3)C[C@H]2[C@H](O)/C=C/C(=O)O1` showed a half-maximal inhibitory concentration (IC50) of 1040 nM.

The compound `C[C@H]1CCC/C=C/[C@@H]2C[C@H](O)C[C@H]2[C@H](OC(=O)/C=C/c2ccc(F)cc2)/C=C/C(=O)O1` displayed an IC50 of 790 nM.

Turning to `C[C@H]1CCC/C=C/[C@@H]2C[C@H](O)C[C@H]2[C@H](OC(=O)/C=C/c2ccccc2)/C=C/C(=O)O1`, it took 970 nM to reach half-maximal inhibition (IC50).

The compound `C[C@H]1CCC/C=C/[C@@H]2C[C@H](O)C[C@H]2[C@H](OC(=O)/C=C/c2ccc3c(c2)OCO3)/C=C/C(=O)O1` came in with an IC50 of 1070 nM.

Consider `C[C@H]1CCC/C=C/[C@@H]2C[C@H](O)C[C@H]2[C@H](OC(=O)/C=C/c2cccc(Cl)c2)/C=C/C(=O)O1`, for which it took 640 nM to reach half-maximal inhibition (IC50).

Turning to `C[C@H]1CCC/C=C/[C@@H]2C[C@H](OC(=O)/C=C/c3ccc(C(F)(F)F)cc3)C[C@H]2[C@H](O)/C=C/C(=O)O1`, the IC50 came to 450 nM.

`Cc1ccccc1/C=C/C(=O)O[C@@H]1C[C@H]2[C@H](O)/C=C/C(=O)O[C@@H](C)CCC/C=C/[C@@H]2C1` gave an IC50 of 2320 nM.

In turn, `C[C@H]1CCC/C=C/[C@@H]2C[C@H](OC(=O)/C=C/c3ccccc3Br)C[C@H]2[C@H](O)/C=C/C(=O)O1` showed a 50% inhibitory concentration (IC50) of 890 nM.

The subject of another experiment is PANC-1. The experiment can be described thus: Antiproliferative activity against human PANC-1 cells measured after 72 hrs by MTT assay. It is filed as functional, cell-based. To be noted: PANC-1, 72 h.
As to `C[C@H]1CCC/C=C/[C@@H]2C[C@H](OC(=O)/C=C/c3ccc(F)cc3)C[C@H]2[C@H](O)/C=C/C(=O)O1`, the half-maximal inhibitory concentration (IC50) was 670 nM.

For the compound `C[C@H]1CCC/C=C/[C@@H]2C[C@H](O)C[C@H]2[C@H](OC(=O)/C=C/c2ccc(F)cc2)/C=C/C(=O)O1`, inhibition was half-maximal at 570 nM (IC50).

`C[C@H]1CCC/C=C/[C@@H]2C[C@H](O)C[C@H]2[C@H](OC(=O)/C=C/c2ccccc2)/C=C/C(=O)O1` yielded an IC50 of 420 nM.

The compound `C[C@H]1CCC/C=C/[C@@H]2C[C@H](O)C[C@H]2[C@H](OC(=O)/C=C/c2ccc3c(c2)OCO3)/C=C/C(=O)O1` came in with a 50% inhibitory concentration (IC50) of 870 nM.

In turn, `C[C@H]1CCC/C=C/[C@@H]2C[C@H](O)C[C@H]2[C@H](OC(=O)/C=C/c2cccc(Cl)c2)/C=C/C(=O)O1` showed an IC50 of 470 nM.

Compound `C[C@H]1CCC/C=C/[C@@H]2C[C@H](OC(=O)/C=C/c3ccc(C(F)(F)F)cc3)C[C@H]2[C@H](O)/C=C/C(=O)O1` registered an IC50 of 460 nM.

`Cc1ccccc1/C=C/C(=O)O[C@@H]1C[C@H]2[C@H](O)/C=C/C(=O)O[C@@H](C)CCC/C=C/[C@@H]2C1`: the IC50 is 2790 nM.

For the compound `C[C@H]1CCC/C=C/[C@@H]2C[C@H](OC(=O)/C=C/c3ccccc3Br)C[C@H]2[C@H](O)/C=C/C(=O)O1`, it took 280 nM to reach half-maximal inhibition (IC50).

The next experiment deals with HeLa. The experiment can be described thus: Antiproliferative activity against human HeLa cells measured after 72 hrs by MTT assay. In kind it is functional, cell-based.
Conditions: not given
Regarding `C[C@H]1CCC/C=C/[C@@H]2C[C@H](OC(=O)/C=C/c3ccc(F)cc3)C[C@H]2[C@H](O)/C=C/C(=O)O1`, the IC50 stood at 3960 nM.

On to `C[C@H]1CCC/C=C/[C@@H]2C[C@H](O)C[C@H]2[C@H](OC(=O)/C=C/c2ccc(F)cc2)/C=C/C(=O)O1`, for which the IC50 was determined as 750 nM.

`C[C@H]1CCC/C=C/[C@@H]2C[C@H](O)C[C@H]2[C@H](OC(=O)/C=C/c2ccccc2)/C=C/C(=O)O1` displayed an IC50 of 1170 nM.

As to `C[C@H]1CCC/C=C/[C@@H]2C[C@H](O)C[C@H]2[C@H](OC(=O)/C=C/c2ccc3c(c2)OCO3)/C=C/C(=O)O1`, 1650 nM corresponded to half-maximal inhibition (IC50).

For the compound `C[C@H]1CCC/C=C/[C@@H]2C[C@H](O)C[C@H]2[C@H](OC(=O)/C=C/c2cccc(Cl)c2)/C=C/C(=O)O1`, half-maximal inhibition (IC50) was put at 800 nM.

`C[C@H]1CCC/C=C/[C@@H]2C[C@H](OC(=O)/C=C/c3ccc(C(F)(F)F)cc3)C[C@H]2[C@H](O)/C=C/C(=O)O1` registered an IC50 of 460 nM.

In turn, `Cc1ccccc1/C=C/C(=O)O[C@@H]1C[C@H]2[C@H](O)/C=C/C(=O)O[C@@H](C)CCC/C=C/[C@@H]2C1` had an IC50 above 4000 nM.

With `C[C@H]1CCC/C=C/[C@@H]2C[C@H](OC(=O)/C=C/c3ccccc3Br)C[C@H]2[C@H](O)/C=C/C(=O)O1`, half-maximal inhibition (IC50) was put at 570 nM.

In another experiment the test system is HepG2. Kind of experiment: Antiproliferative activity against human HepG2 cells measured after 72 hrs by MTT assay. In kind it is functional, cell-based. Conditions: HepG2, 72 h.
`C[C@H]1CCC/C=C/[C@@H]2C[C@H](OC(=O)/C=C/c3ccc(F)cc3)C[C@H]2[C@H](O)/C=C/C(=O)O1` showed a half-inhibitory concentration (IC50) of 980 nM.

In turn, `C[C@H]1CCC/C=C/[C@@H]2C[C@H](O)C[C@H]2[C@H](OC(=O)/C=C/c2ccc(F)cc2)/C=C/C(=O)O1` gave an IC50 of 1020 nM.

Turning to `C[C@H]1CCC/C=C/[C@@H]2C[C@H](O)C[C@H]2[C@H](OC(=O)/C=C/c2ccccc2)/C=C/C(=O)O1`, the IC50 is 570 nM.

As to `C[C@H]1CCC/C=C/[C@@H]2C[C@H](O)C[C@H]2[C@H](OC(=O)/C=C/c2ccc3c(c2)OCO3)/C=C/C(=O)O1`, half-maximal inhibition (IC50) was put at 1350 nM.

In turn, `C[C@H]1CCC/C=C/[C@@H]2C[C@H](O)C[C@H]2[C@H](OC(=O)/C=C/c2cccc(Cl)c2)/C=C/C(=O)O1` returned an IC50 of 730 nM.

As for `C[C@H]1CCC/C=C/[C@@H]2C[C@H](OC(=O)/C=C/c3ccc(C(F)(F)F)cc3)C[C@H]2[C@H](O)/C=C/C(=O)O1`, it took 420 nM to reach half-maximal inhibition (IC50).

The compound `Cc1ccccc1/C=C/C(=O)O[C@@H]1C[C@H]2[C@H](O)/C=C/C(=O)O[C@@H](C)CCC/C=C/[C@@H]2C1` yielded a half-maximal inhibitory concentration (IC50) of 2980 nM.

The compound `C[C@H]1CCC/C=C/[C@@H]2C[C@H](OC(=O)/C=C/c3ccccc3Br)C[C@H]2[C@H](O)/C=C/C(=O)O1` registered an IC50 of 410 nM.

Another experiment deals with HepG2. The experiment can be described thus: Antiproliferative activity against human HepG2 cells assessed as cell growth inhibition at 1 uM measured after 72 hrs by MTT assay relative to control. To be noted: read-out: GI. It is filed as functional.
For the compound `C[C@H]1CCC/C=C/[C@@H]2C[C@H](OC(=O)/C=C/c3ccc(F)cc3)C[C@H]2[C@H](O)/C=C/C(=O)O1`, the inhibition of growth at 1 µM was found to be 69.7%.

With `C[C@H]1CCC/C=C/[C@@H]2C[C@H](O)C[C@H]2[C@H](OC(=O)/C=C/c2ccc(F)cc2)/C=C/C(=O)O1`, the inhibition of growth at 1 µM came to 62%.

On to `C[C@H]1CCC/C=C/[C@@H]2C[C@H](O)C[C@H]2[C@H](OC(=O)/C=C/c2ccccc2)/C=C/C(=O)O1`, for which the inhibition of growth at 1 µM came to 64.7%.

Regarding `C[C@H]1CCC/C=C/[C@@H]2C[C@H](O)C[C@H]2[C@H](OC(=O)/C=C/c2ccc3c(c2)OCO3)/C=C/C(=O)O1`, the inhibition of growth at 1 µM is 54.5%.

In the case of `C[C@H]1CCC/C=C/[C@@H]2C[C@H](O)C[C@H]2[C@H](OC(=O)/C=C/c2cccc(Cl)c2)/C=C/C(=O)O1`, the inhibition of growth at 1 µM came out at 77.4%.

For `C[C@H]1CCC/C=C/[C@@H]2C[C@H](OC(=O)/C=C/c3ccc(C(F)(F)F)cc3)C[C@H]2[C@H](O)/C=C/C(=O)O1`, the inhibition of growth at 1 µM was determined as 86.7%.

Regarding `Cc1ccccc1/C=C/C(=O)O[C@@H]1C[C@H]2[C@H](O)/C=C/C(=O)O[C@@H](C)CCC/C=C/[C@@H]2C1`, the inhibition of growth at 1 µM turned out to be 28.9%.

For `C[C@H]1CCC/C=C/[C@@H]2C[C@H](OC(=O)/C=C/c3ccccc3Br)C[C@H]2[C@H](O)/C=C/C(=O)O1`, the inhibition of growth at 1 µM came to 70.5%.

In general, IC50 refers to the concentration needed to halve the response being measured.

For the origin of these results see ChEMBL document CHEMBL5113500, “New brefeldin A-cinnamic acid ester derivatives as potential antitumor agents: Design, synthesis and biological evaluation” (Eur J Med Chem, 2022).
